Test: CO release through pig ear skin
Type: in vitro ADME
Experimental: Pig ear skin was purchased from a butcher and prepared immediately after delivery. Skin was carefully removed from the remaining fat and cartilage. Subsequent to the preparation, the skin was clamped between the top and bottom compartment of the test cell. Sealing was ensured by screw clamps and a sealing ring (FIG. 5A).
For the experiment 15 mg of tri-sodium Beck-1 ((Mo(CO)3(CNCH2CO2Na)3) were placed in the bottom compartment of the test cell and dissolved in 4 mL H2O. CO release was activated by adding 1 mL of iron(III)chloride solution (350 mg/mL) to the tri-sodium Beck-1. CO release through the pig skin was measured over a time period of 1000 minutes.
The data shown in FIG. 6 illustrates that CO release trough the pig skin is a slow process and reaches plateau in the raw data at around 500 minutes and stays at that plateau of 200 ppm CO for another 500 minutes until the end of the experiment. A plateau in the raw data means that the sensor consumption of CO is at the same rate as the release through the skin. To correct for the sensor consumption, CO release data of tri-sodium Beck-1 without any limiting membranes were used to calculate the consumption rate of the sensor.

## [C-]#[O+] [CO, carbon monoxide]
15 mg tri-sodium Beck-1 activated with iron(III)chloride, at 1000 minutes, corrected for sensor consumption of CO
  CO release through the pig skin, maximum in the corrected data: 340 ppm
15 mg tri-sodium Beck-1 in 4 mL H2O activated with 1 mL iron(III)chloride solution (350 mg/mL), averaged raw data (n=2), plateau held until 1000 minutes
  CO release through the pig skin, plateau in the raw data: 200 ppm
15 mg tri-sodium Beck-1 in 4 mL H2O activated with 1 mL iron(III)chloride solution (350 mg/mL), raw data
  time at which CO release through the pig skin reaches plateau in the raw data: around 500 minutes

Reference: patent US12622880B2, “Therapeutic system for the topical, transdermal and transcutaneous application of carbon monoxide” (Julius-Maximilians-Universitaet Wuerzburg, priority 2020, dated 2026)
